# According to US20240191187A1, “MEDIA AND METHODS FOR GROWING MAMMARY ORGANOIDS” (STEMCELL TECHNOLOGIES CANADA INC., priority 2021, published 2024):
# “Also recorded” adds a separate entry of the source.
# Assays:
# [1] = system: human mammary epithelial cells; assay: Human mammary organoids stained for K8/K14, confocal microscopy; assay type: cell-based; conditions: Day 17 organoids; 50 ng/mL NRG3, 100 ng/mL AMH, 50 ng/mL GM-CSF
# Experimental: (§1) Organoids were recovered from Matrigel by incubating in Corning Cell Recovery Solution for 1 hour with rocking on ice. Organoids were then fixed in 4% paraformaldehyde (PFA) at room temperature for 1 hour and stored in PBS at 4° C. After PFA fixation, antigen retrieval was performed by boiling the organoids in sodium citrate buffer for 20 minutes at 96° C. Organoids were permeabilized in a 0.5% Triton-X-100 solution in PBS overnight at room temperature. Samples were blocked by incubating overnight in a solution of 5% goat serum.
# Following fixation and permeabilization, the organoids were incubated sequentially in primary antibody and secondary antibody solutions (as summarized in the table below) overnight at room temperature. Samples were counterstained in a 2 μg/ml DAPI solution for 20 minutes and dehydrated through stepwise incubations in solutions with increasing methanol concentrations (50%, 80%, then 100% methanol). Organoids were embedded in a solution of 2:1 Benzyl Benzoate-Benzyl alcohol (BABB), transferred to Ibidi glass bottom chamber slides and imaged using a Leica SP8 confocal laser scanning microscope. […]
# The effects of modulating signaling through BMP were analyzed across multiple experiments in terms of total cell count among formed organoids (FIG. 9A) and the lineage balance of the cells among formed organoids (FIG. 9B). […]
# [2] = system: human mammary epithelial cells; assay: Human mammary organoid formation, brightfield microscopy; assay type: cell-based; conditions: media comprising NOGGIN or LDN193189 alone vs both; successive passages
# Experimental: Fragments of human mammary epithelial cells were isolated from tissue samples obtained from academic collaborators, as follows. Resected tissue samples were minced in a petri dish using a scalpel to cut in a cross-hatched pattern. The minced tissue samples were placed in a dissociation flask in standard culture medium supplemented with BSA, insulin, collagenase and hyaluronidase. The flask was gently shaken overnight on an orbital shaker placed in a 37° C. tissue incubator. The following morning the floating layer of fat was removed by pipette, and the remaining liquid was transferred to a tube and briefly centrifuged at low rpm (˜80 g for 30 seconds). The pellet (A pellet) was set aside and the supernatant was further centrifuged for an incrementally longer period of time and at an incrementally higher rpm (˜200 g for 4 minutes). The pellet (B pellet) was set aside and the supernatant was further centrifuged for a still incrementally longer period of time and at an incrementally higher rpm (˜450 g for 5 minutes).
# Cryopreserved pellet A and pellet B were dissociated into a single cell suspension by treatment with 0.25% Trypsin-EDTA for 5 minutes at 37° C. (with intermittent trituration) and then centrifuged at (300 g for 5 minutes). The supernatant was discarded and the pellet was resuspended in a 100 μg/ml DNase solution for 1 minute at room temperature. […]
# [3] = system: human mammary epithelial cells; assay: Human mammary organoid cell lineage balance by flow cytometry; conditions: for cell lineage balance, ERBB receptor family ligands: ~10-50 ng/mL AREG, ~10-50 ng/mL EGF, ~50-100 ng/mL NRG1; for cell lineage balance across multiple experiments, ERBB ligands: normalized to control lacking ERBB modulators, mean of 2 experiments; for cell lineage balance, inhibitors of TGFβ signaling: ~10 μM SB431542, ~200-500 nM A77-01, ~5-25 RepSox
# Experimental: (§4) Cryopreserved pellet A and pellet B were dissociated into a single cell suspension by treatment with 0.25% Trypsin-EDTA for 5 minutes at 37° C. (with intermittent trituration) and then centrifuged at (300 g for 5 minutes). The supernatant was discarded and the pellet was resuspended in a 100 μg/ml DNase solution for 1 minute at room temperature. The resulting cells were passed through a 37 μm strainer to obtain the single cell suspension.
# Each well received between 0.5-1 mL of any one of the various culture media described herein.
# The plated single cell suspension of mammary epithelial cells formed into organoids that were passaged approximately every 7-days, with 2-3 full medium changes during such 7-day period. To passage the organoids, the Matrigel domes were broken apart by pipetting in pre-warmed 0.25% Trypsin-EDTA, incubating at 37° C. for ˜ 5-15 minutes and pipetting again. The trypsinization reaction was inactivated by washing in an equal volume of Hanks Balanced Salt Solution supplemented with 2% FBS. Depending on the density and size of organoids a 1:2-1:5 split was performed, with the cells seeded as domes, as described above. Alternatively, cells would be strained through a 37 μm strainer to obtain the single cell suspension and seeded in Matrigel domes as described above.
# Organoids were formed in media comprising either BMP signaling activator, ˜50 ng/mL BMP2 or ˜50 ng/mL BMP4, and in media comprising either BMP signaling inhibitor, ˜25-200 ng/mL NOGGIN or ˜10-100 nM LDN193189. Just prior to the first passage, the formed organoids were dissociated and the cell lineage balance was analyzed by flow cytometry.
# Organoids were formed in media comprising either no ligand of an ERBB receptor family member, or comprising ˜10-50 ng/mL amphiregulin (AREG), ˜10-50 ng/mL epidermal growth factor (EGF), or ˜50-100 ng/mL heregulin/neuregulin 1 (NRG1). Just prior to the first passage, the formed organoids were dissociated and the cell lineage balance was analyzed by flow cytometry.
# Just prior to the first passage, the formed organoids were dissociated and the cell lineage balance was analyzed by flow cytometry.
# [4] = system: human mammary epithelial cells; assay: Total cell count among formed human mammary organoids; assay type: cell-based; conditions: vs control with no modulation of ERBB signaling
# Experimental: as §4
# Each well received between 0.5-1 mL of any one of the various culture media described herein. […]
# The effects of modulating signaling through an ERBB receptor family member were analyzed across multiple experiments in terms of total cell count among formed organoids (FIG. 13A) and the lineage balance of the cells among formed organoids (FIG. 13B).
# [5] = system: estrogen receptor localization in human mammary organoids; assay: ER localization in human mammary organoids after transient TGFβ signaling inhibitor exposure (confocal); assay type: cell-based; conditions: transient exposure after organoids have formed
# Experimental: (§2) In panel A) (human) and in panel B) (mouse) organoids were formed in respective organoid media of this disclosure, and were then transiently exposed to different inhibitors of TGFβ signaling. Organoids were imaged by confocal microscopy after staining for K8, K14, ER and the nuclear stain DAPI.
# as §1
# (§3) Following fixation and permeabilization, the organoids were incubated sequentially in primary antibody and secondary antibody solutions (as summarized in the table below) overnight at room temperature. Samples were counterstained in a 2 μg/ml DAPI solution for 20 minutes and dehydrated through stepwise incubations in solutions with increasing methanol concentrations (50%, 80%, then 100% methanol). […]
# [6] = system: estrogen receptor localization in mouse mammary organoids; assay: ER localization in mouse mammary organoids after transient TGFβ signaling inhibitor exposure (confocal); assay type: cell-based; conditions: transient exposure after organoids have formed
# Experimental: as §2, §1, §3
compound,measurement,setting,value
Granulocyte-macrophage Colony Stimulating Factor [GM-CSF],lineage restriction of organoids formed (K8/K14 staining),[1],bias the culture of mammary epithelial cells to form basal-restricted organoids; also recorded: Basal-restricted organoids were formed
Neuregulin 3 [NRG3],lineage restriction of organoids formed (K8/K14 staining),[1],bias the culture of mammary epithelial cells to form luminal-restricted organoids; also recorded: Luminal-restricted organoids were formed
"c1ccc2c(-c3cnn4cc(-c5ccc(N6CCNCC6)cc5)cnc34)ccnc2c1 [LDN193189, reference compound]","formation of luminal organoids, single vs dual BMP signaling inhibitor",[2],appeared sufficient to bias formation of luminal organoids
same,"cell lineage balance, BMP signaling modulators","[3]; just prior to first passage, ~50 ng/mL BMP2 or BMP4, ~25-200 ng/mL NOGGIN or ~10-100 nM LDN193189",decreased the number of basal cells while increasing the number of luminal cells
TGFβ1: ligand of a TGFβ receptor,"cell lineage balance, TGFβ receptor ligands","[3]; ~50 ng/mL, just prior to first passage","an overall negative impact on the percentage of luminal and basal cells, while greatly increasing the proportion of stromal cells"
epidermal growth factor [EGF],"total cell count among formed organoids, ERBB modulators",[4],highest mitogenic activity
same,"cell lineage balance, ERBB receptor family ligands",[3]; just prior to first passage,significantly reduce the number of luminal cells while significantly increasing the number of basal cells
same,"cell lineage balance across multiple experiments, ERBB ligands",[3],the greatest reduction in luminal cells and the greatest increase in basal cells
NC(=O)c1ccc(-c2nc(-c3ccc4c(c3)OCO4)c(-c3ccccn3)[nH]2)cc1 [SB431542],"localization of estrogen receptor, human organoids",[5],promoted the localization of estrogen receptor within nuclei
same,"localization of estrogen receptor, mouse organoids",[6],promoted the localization of estrogen receptor within nuclei
same,"cell lineage balance, inhibitors of TGFβ signaling",[3],reduce the proportion of stromal cells while either maintaining or improving the proportions of luminal cells
heregulin/neuregulin 1 [NRG1],"cell lineage balance, ERBB receptor family ligands",[3]; just prior to first passage,a minor or no effect on cell lineage balance
same,"cell lineage balance across multiple experiments, ERBB ligands",[3],a higher percentage of luminal cells and a reduction in the percentage of basal cells
"Cc1cccc(-c2[nH]ncc2-c2ccnc3ccccc23)n1 [A77-01, reference compound]","cell lineage balance, inhibitors of TGFβ signaling",[3],reduce the proportion of stromal cells while either maintaining or improving the proportions of luminal cells
"C#Cc1cccc(Nc2ncnc3cc(OCCOC)c(OCCOC)cc23)c1 [Erlotinib, reference compound]","cell lineage balance, EGF receptor inhibition","[3]; ~100 nM Gefitinib and ~100 nM Erlotinib given together, two donor samples",negligible or no effect on cell lineage balance
Cc1cccc(-c2[nH]ncc2-c2ccc3ncccc3n2)n1 [RepSox],"localization of estrogen receptor, human organoids",[5],promoted the localization of estrogen receptor within nuclei
same,"localization of estrogen receptor, mouse organoids",[6],promoted the localization of estrogen receptor within nuclei
same,"cell lineage balance, inhibitors of TGFβ signaling",[3],reduce the proportion of stromal cells while either maintaining or improving the proportions of luminal cells
